In publication PMC9716094, “Synthesis of novel amidines via one-pot three component reactions: Selective topoisomerase I inhibitors with antiproliferative properties” (Frontiers in Chemistry, 2022):
One block for each molecule: values may come before it.

Key:
[1] = test system: Panc-1 (pancreas cancer cell line); test: Antiproliferative assay, Panc-1; format: cell-based; conditions: Homo sapiens, read-out: Antiproliferative activity IC50 ± SEM, Panc-1
Source text: (§1) See Supplementary Appendix S1A.
(§2) DMSO (0.1%) was used as control.

[2] = Cell viability assay (MTT) on normal cell line; format: cell-based; conditions: human, MCF-10A mammary epithelial cells, 50 µM of compound;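 note: values are percent cell viability not percent inhibition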
Method: To study the effect of 4a-l and 5a-c on normal cell lines, a cell viability assay was done using the MCF-10A (human mammary gland epithelial) cell line ([Abdelbaset et al., 2019]; [Al-Wahaibi et al., 2020]). This study uses a concentration of 50 µM of the investigated compound for 4 days, after which cell viability is evaluated.
To study the effect of 4a-l and 5a-c on normal cell lines, a cell viability assay was done using the MCF-10A (human mammary gland epithelial) cell line ([Abdelbaset et al., 2019]; [Al-Wahaibi et al., 2020]). See Supplementary Appendix S1A.
MTT assay was carried out to study the effect of compounds on mammary epithelial cells (MCF-10A). The medium in which cells were propagated contained Dulbecco's modified Eagle's medium (DMEM)/ Ham's F-12 medium (1:1) supplemented with epidermal growth factor (20 ng/mL), hydrocortisone (500 ng/mL), insulin (10 μg/mL), 2 mM glutamine and 10% fetal calf serum. After every 2-3 days, the cells were passaged using trypsin ethylenediamine tetra acetic acid (EDTA). The cells were seeded at a density of 10^4 cells mL^-1 in flat-bottomed culture plates containing 96 wells each. After 24 h, medium was removed from the plates and the compounds in (in 0.1% DMSO) were added (in 200 μL medium to yield a final concentration of 0.1% v/v) to the wells of plates. A single compound was designated with four wells followed by incubation of plates for 96h at 37°C. After incubation, medium was removed completely from the plates followed by addition of MTT (0.4 mg/mL in medium) to each well and subsequent incubation of plates for 3h. MTT (along with the medium) was removed and DMSO (150μL) was added to each well of the culture plates, followed by vortexing and subsequent measurement of absorbance (at 540 nm) using microplate reader. The data are shown as percentage inhibition of proliferation in comparison with controls containing 0.1% DMSO.

[3] = test system: A-549 (epithelial cancer cell line); test: Antiproliferative assay, A-549; format: cell-based; conditions: Homo sapiens, A549; read-out: Antiproliferative activity IC50 ± SEM, A-549
Source text: as §1, §2

[4] = test system: HT-29 (colon cancer cell line); test: Antiproliferative assay, HT-29; conditions: Homo sapiens, HT-29, read-out: Antiproliferative activity IC50 ± SEM, HT-29
Method: (§3) The IC50 of each compound was calculated using doxorubicin as the reference.
(§4) To explore the antiproliferative potential of compounds MTT assay was performed according to previously reported procedure using different cell lines to explore the antiproliferative potential of compounds propidium iodide fluorescence assay was performed using different cell lines. To calculate the total nuclear DNA, a fluorescent dye (propidium iodide, PI) is used which can attach to the DNA, thus offering a quick and precise technique. PI cannot pass through the cell membrane and its signal intensity can be considered as directly proportional to quantity of cellular DNA. Cells whose cell membranes are damaged or have changed permeability are counted as dead ones. The assay was performed by seeding the cells of different cell lines at a density of 3000-7500 cells/well (in 200µl medium) in culture plates followed by incubation for 24h at 37 °C in humidified 5% CO2/95% air atmospheric conditions. The medium was removed; the compounds were added to the plates at 10 µM concentrations (in 0.1% DMSO) in triplicates, followed by incubation for 48 h. DMSO (0.1%) was used as control. After incubation, medium was removed followed by the addition of PI (25 µl, 50µg/mL in water/medium) to each well of the plates. At -80 °C, the plates were allowed to freeze for 24 h, followed by thawing at 25 °C. A fluorometer (Polar-Star BMG Tech) was used to record the readings at excitation and emission wavelengths of 530 and 620 nm for each well. The percentage cytotoxicity of compounds was calculated using the following formula:

[5] = test system: four cancer cell lines (A-549, MCF-7, Panc-1, HT-29); test: Antiproliferative assay, average over the four cancer cell lines (GI50); conditions: for IC50: read-out: Antiproliferative activity IC50, Average (mean GI50); for Fold less potent than the reference doxorubicin (GI50): mean GI50 compared with doxorubicin
Method: as §3, §4

[6] = test system: MCF-7 (breast cancer cell line); test: Antiproliferative assay, MCF-7; format: cell-based; conditions: Homo sapiens, MCF7; read-out: Antiproliferative activity IC50 ± SEM, MCF-7
Source text: as §1, §2

IC50 [1]: 6.1 ± 0.6 µM | IC50 [3]: 6.3 ± 0.6 µM | IC50 [4]: 6.2 ± 0.6 µM | Fold less potent than the reference doxorubicin (GI50) [5]: at least 6 fold | IC50 [5]: 6.1 µM | IC50 [6]: 5.9 ± 0.6 µM
SMILES: O=c1cc(/N=C(\C2CCCC2)N2CCOCC2)c2ccccc2[nH]1 [Compound 4g, (E) 4-((Cyclopentyl(morpholino)methylene)amino)quinolin-2(1H)-one]
viability at 4 days, 50 µM [2]: 89%

IC50 [1]: 2.3 ± 0.2 µM | IC50 [3]: 2.6 ± 0.2 µM | IC50 [4]: 2.3 ± 0.2 µM | melting point: 226 °C | IC50 [5]: 2.3 µM | IC50 [6]: 1.9 ± 0.2 µM
SMILES: Cc1ccc2[nH]c(=O)cc(/N=C(\C3CCCC3)N3CCOCC3)c2c1 [Compound 4h, (E) 4-((Cyclopentyl(morpholino)methylene)amino)-6-methylquinolin-2(1H)-one]
viability at 4 days, 50 µM [2]: 91%

IC50 [1]: 3.1 ± 0.3 µM | IC50 [3]: 3.7 ± 0.3 µM | IC50 [4]: 3.5 ± 0.3 µM | melting point: 247 °C | IC50 [5]: 3.3 µM | IC50 [6]: 2.9 ± 0.3 µM
SMILES: O=c1cc(/N=C(\C2CCCC2)N2CCOCC2)c2cc(Cl)ccc2[nH]1 [Compound 4j, (E) 4-((Cyclopentyl(morpholino)methylene)amino)-6-chloroquinolin-2(1H)-one]
viability at 4 days, 50 µM [2]: 89%

IC50 [1]: 4.2 ± 0.4 µM | IC50 [3]: 4.6 ± 0.4 µM | IC50 [4]: 4.1 ± 0.4 µM | melting point: 220 °C | IC50 [5]: 4.2 µM | IC50 [6]: 4.05 ± 0.4 µM
SMILES: Cc1cccc2c(/N=C(\C3CCCC3)N3CCOCC3)cc(=O)[nH]c12 [Compound 4k, (E) 4-((Cyclopentyl(morpholino)methylene)amino)-8-methylquinolin-2(1H)-one]
viability at 4 days, 50 µM [2]: 91%

More lines, now with the values behind:

SMILES: O=c1cc(/N=C(\C2CCCC2)N2CCCCC2)c2ccccc2[nH]1 [Compound 4a, (E) 4-((Cyclopentyl(piperidin-1-yl)methylene)amino)quinolin-2(1H)-one]
IC50 [1]: 5.4 ± 0.5 µM | viability at 4 days, 50 µM [2]: 85% | IC50 [3]: 5.9 ± 0.5 µM | IC50 [4]: 5.5 ± 0.5 µM | melting point: 210 °C | IC50 [5]: 5.5 µM | IC50 [6]: 5.1 ± 0.5 µM

SMILES: COc1ccc2[nH]c(=O)cc(/N=C(\C3CCCC3)N3CCCCC3)c2c1 [Compound 4c, (E) 4-((Cyclopentyl(piperidin-1-yl)methylene)amino)-6-methoxyquinolin-2(1H)-one]
IC50 [1]: 2.05 ± 0.2 µM | viability at 4 days, 50 µM [2]: 91% | IC50 [3]: 2.3 ± 0.2 µM | IC50 [4]: 2.2 ± 0.2 µM | melting point: 250 °C | IC50 [5]: 2.1 µM | IC50 [6]: 1.9 ± 0.2 µM

SMILES: Cn1c(=O)cc(/N=C(\C2CCCC2)N2CCCCC2)c2ccccc21 [Compound 4f, (E) 4-((Cyclopentyl(piperidin-1-yl)methylene)amino)-1-methylquinolin-2(1H)-one]
IC50 [1]: 7.9 ± 0.8 µM | viability at 4 days, 50 µM [2]: 87% | IC50 [3]: 8 ± 0.8 µM | IC50 [4]: 7.7 ± 0.8 µM | melting point: 142 °C | IC50 [5]: 7.8 µM | IC50 [6]: 7.5 ± 0.8 µM

SMILES: Cn1c(=O)cc(/N=C(\C2CCCC2)N2CCOCC2)c2ccccc21 [Compound 4l, (E) 4-((Cyclopentyl(morpholino)methylene)amino)-1-methylquinolin-2(1H)-one]
IC50 [1]: 7.4 ± 0.7 µM | viability at 4 days, 50 µM [2]: 89% | IC50 [3]: 7.6 ± 0.7 µM | IC50 [4]: 7.2 ± 0.7 µM | Fold less potent than the reference doxorubicin (GI50) [5]: at least 6 fold | IC50 [5]: 7.3 µM | IC50 [6]: 7.1 ± 0.7 µM

SMILES: O=c1cc(/N=C(\C2CCCC2)N2CCN(/C(=N/c3cc(=O)[nH]c4ccccc34)C3CCCC3)CC2)c2ccccc2[nH]1 [Compound 5a, 4,4'-((1E,1′E)-(piperazine-1,4-diylbis(cyclopentylmethanylylidene))bis(azanylylid-ene))bis(quinolin-2(1H)-one)]
IC50 [1]: 4.9 ± 0.3 µM | viability at 4 days, 50 µM [2]: 91% | IC50 [3]: 5.15 ± 0.3 µM | IC50 [4]: 5.1 ± 0.3 µM | melting point: 360 °C | IC50 [5]: 5 µM | IC50 [6]: 4.7 ± 0.4 µM

SMILES: COc1cccc2c1C(=O)c1c(O)c3c(c(O)c1C2=O)C[C@@](O)(C(=O)CO)C[C@@H]3O[C@H]1C[C@H](N)[C@H](O)[C@H](C)O1 [Doxorubicin, reference compound]
IC50 [1]: 1.4 ± 0.2 µM | IC50 [3]: 1.2 ± 0.1 µM | IC50 [4]: 1 ± 0.1 µM | IC50 [5]: 1.1 µM | IC50 [6]: 0.9 ± 0.1 µM
